Among the data in article PMC12040169 (PLOS Biology, 2025) are viability values, retold here.

SMILES strings stand for the structures.

The data set is described as follows: in vitro. As to conditions: human, hela cells, % viability.
As for `O=C(Cc1cn2ccsc2n1)Nc1ccc(N2CCCCC2)cc1` [CBK306185], the viability at 28.5 h, 10 µM was 79%.
With `O=C(Nc1cc(Cl)ccc1C(=O)NC1CCC(O)CC1)c1cccs1` (stereo not shown) [CBK306186], the viability at 28.5 h, 10 µM turned out to be 89.2%.
Turning to `Cc1ccc2[nH]c(SC(C)C(=O)N3CCOCC3)nc2c1` (stereo not shown) [CBK306187], the viability at 28.5 h, 10 µM amounted to 96%.
Consider `CCOC(=O)Cc1csc(SCC(=O)N2CCc3ccccc32)n1` [CBK306190], for which the viability at 28.5 h, 10 µM was 88.8%.
Take `N#CCCn1cc(C(=O)N2CCCCC2)c(-c2ccc(F)cc2)n1` [CBK306191]: the viability at 28.5 h, 10 µM came to 91.8%.
Turning to `N#Cc1ccsc1NC(=O)CN1CCN(c2cccc(Cl)c2)CC1` [CBK306192], the viability at 28.5 h, 10 µM stood at 81.1%.
On to `CC1CCC2(CC1)NC(=O)N(Cc1coc(-c3ccccc3)n1)C2=O` (stereo not shown) [CBK306196], for which the viability at 28.5 h, 10 µM came to 98.3%.
`CCN(CC(=O)Nc1c(F)cccc1F)S(=O)(=O)c1cccc(C#N)c1` [CBK306197]: the viability at 28.5 h, 10 µM is 85.4%.
Regarding `CCOC(=O)C1CCCN(Cc2nc3cc(Cl)ccc3c(=O)[nH]2)C1` (stereo not shown) [CBK306198], the viability at 28.5 h, 10 µM came to 86.9%.
As for `CC(C)n1c(CN2CCOCC2)nc2c1c(=O)n(C)c(=O)n2C` [CBK306201], the viability at 28.5 h, 10 µM amounted to 83.7%.
With `N#CCCn1cc(C(=O)N2CCOCC2)c(-c2cc3ccccc3o2)n1` [CBK306203], the viability at 28.5 h, 10 µM came out at 104%.
As to `N#CCCn1cc(C(=O)N2CCOCC2)c(-c2ccccc2)n1` [CBK306207], the viability at 28.5 h, 10 µM amounted to 86%.
Turning to `N#CCCn1cc(C(=O)N2CCCCC2)c(-c2cccc(Cl)c2)n1` [CBK306209], the viability at 28.5 h, 10 µM was 80%.
For `CCN(C(C)=O)c1nc(CN2CCOC(c3ccc(F)cc3)C2)cs1` (stereo not shown) [CBK306213] the value was 94.3%; for `COCc1cccc(Nc2ncnc3c2cnn3CCO)c1` [CBK306214], 93.2%.
On to `CCCCN(CC(F)(F)F)C(=O)Cc1csc(NC(=O)C(C)C)n1` [CBK306217], for which the viability at 28.5 h, 10 µM is 99.5%.
With `Cc1nc(C)n(CC2CCCN(Cc3nc4c(F)cccc4[nH]3)C2)n1` (stereo not shown) [CBK306218] the figure was 110%; with `CC(C)c1nc(CN2CCN(c3ccc4nncn4n3)CC2)cs1` [CBK306219], 102%.
In the case of `CCn1c(CN2CC(n3nc(C)cc3C)C2)nc2c(F)cccc21` [CBK306220], the viability at 28.5 h, 10 µM was found to be 82%.
With `O=C1NC2(CCSC2)C(=O)N1Cc1noc(-c2cccs2)n1` (stereo not shown) [CBK306225] the figure was 90.6%.
Take `Cc1cc(C(=O)Nc2cc(F)c(N3CCCC3)c(F)c2)c(C)n1C1CC1` [CBK306226]: the viability at 28.5 h, 10 µM was 102%.
`CN1CCC(NC(=O)c2cccc(NC(=O)C3CCCCC3)c2)C1=O` (stereo not shown) [CBK306228]: the viability at 28.5 h, 10 µM came out at 81.3%.
On to `CN(C)c1ccc(Nc2ncnc3c2cnn3CCC#N)cn1` [CBK306231], for which the viability at 28.5 h, 10 µM was determined as 103%.
For `CC(=O)N(C)Cc1cccc(Nc2ncnc3c2cnn3CCC#N)c1` [CBK306232] the value was 88.5%; for `Cc1cc(C)n(CC(=O)N2CCC(Nc3cccnn3)CC2)n1` [CBK306234], 106%; for `Cc1cc(NC(=O)N2CCCN(CC3CCCCC3)CC2)no1` [CBK306239], 99.9%.
Turning to `N#Cc1ccc(NCC(=O)Nc2ccn(Cc3ccncc3)n2)cc1` [CBK306241], the viability at 28.5 h, 10 µM came to 89.7%.
For the compound `CC(NC(=O)CCc1cccnc1)c1nc(-c2ccncc2)cs1` (stereo not shown) [CBK306243], the viability at 28.5 h, 10 µM was 90.8%.
For `CCOCC(=O)N(C)C1CCN(c2ncnc3ccccc23)CC1` [CBK306247] the value was 89.1%; for `CC(C)NC(=O)N1CCN(Cc2nc(-c3ccoc3)no2)CC1` [CBK306248], 88.2%; for `O=C(Nc1cc(N2CCCS2(=O)=O)ccc1Cl)c1cc[nH]n1` [CBK306249], 83.1%.
As for `CCOC(=O)N1CCN(C(=O)Nc2ccc3oc(=O)n(C)c3c2)CC1` [CBK306250], the viability at 28.5 h, 10 µM was 109%.
For the compound `CCCc1nc(-c2ccc3c(c2)CCCN3S(C)(=O)=O)cs1` [CBK306253], the viability at 28.5 h, 10 µM was found to be 93%.
With `CC1CCN(C(=O)COC(=O)c2cnc(-c3ccncc3)s2)CC1` [CBK306255] the figure was 94.6%.
As to `Brc1ccc(C2(c3nnc(C4CCCO4)o3)CCOCC2)cc1` (stereo not shown) [CBK306258], the viability at 28.5 h, 10 µM worked out at 117%.
`CCC(NS(=O)(=O)c1cnc2c(c1)c(C)nn2C)C(O)C(F)(F)F` (stereo not shown) [CBK306264]: the viability at 28.5 h, 10 µM was found to be 86.5%.
With `COc1ccc(Br)c(C(CO)N(C)C(=O)Cc2cnccc2C)c1` (stereo not shown) [CBK306267] the figure was 96.4%; with `O=C(NC1CCN(CC(F)(F)F)C1=O)c1ccnc(C2CC2)n1` (stereo not shown) [CBK306268], 97%; with `Cn1nc(CN2CCNC(=O)C2c2ccccc2C(F)(F)F)[nH]c1=O` (stereo not shown) [CBK306269], 91.3%.
Regarding `COc1ccnc(N2CCN(C(=O)c3cc(C(C)=O)cn3C)CC2)n1` [CBK306272], the viability at 28.5 h, 10 µM stood at 91.2%.
Regarding `Cc1sc2nc(C(C)N(C)Cc3cc[nH]n3)[nH]c(=O)c2c1C` (stereo not shown) [CBK306275], the viability at 28.5 h, 10 µM was 99.3%.
Turning to `Cc1cc(C)nc(NCc2cnn(C)c2C)n1` [CBK306276], the viability at 28.5 h, 10 µM is 88.1%.
With `CCOC(=O)C1CCN(C(=O)Nc2cc(C)on2)CC1` [CBK306280], the viability at 28.5 h, 10 µM turned out to be 88.5%.
On to `CC(C)(C)OC(=O)N1CCN(Cc2ncc(-c3ccccc3)o2)CC1` [CBK306281], for which the viability at 28.5 h, 10 µM was determined as 99.3%.
For `Cn1nccc1CNCc1c(Br)cc(F)c(F)c1N1CCCCC1` [CBK306284] the value was 92.8%; for `COCC1CN(C(=O)Nc2ncc(Cc3ccc(C)c(Cl)c3)s2)CCO1` (stereo not shown) [CBK306286], 84%; for `CC(C)N(CC(N)=O)Cc1nc(-c2cccc(C(F)(F)F)c2)no1` [CBK306287], 89.8%.
With `CC(c1cccs1)N(C)C(=O)NC1CCCc2c1cnn2CCO` (stereo not shown) [CBK306289] the figure was 113%; with `CC(=O)N1CC(C(=O)N2CC3(CCCC3)c3c(F)cccc32)C1` [CBK306292], 97.6%; with `O=C(NCc1cccs1)N1CCCN(Cc2ccc(F)cc2)CC1` [CBK306294], 97.4%.
Take `Cc1ccn(-c2ccc(N3CCC(OC4CCOCC4)CC3)nn2)n1` [CBK306296]: the viability at 28.5 h, 10 µM was determined as 87%.
For `COCc1nc(C(=O)Nc2ccc(NC(C)=O)cc2C(F)(F)F)cs1` [CBK306298], the viability at 28.5 h, 10 µM stood at 107%.
`NC(=O)NC(CC(=O)N1CCOC2CCCCC21)c1cccc(Br)c1` (stereo not shown) [CBK306299]: the viability at 28.5 h, 10 µM was 93.8%.
For `Cc1ccn(-c2ccc(N3CCC(OC4CCCC4)CC3)nn2)n1` [CBK306301] the value was 96%; for `Cc1sc(NC(=O)CN(Cc2cnn(C)c2)C(C)C)c(C#N)c1C` [CBK306303], 93.1%.
Regarding `CCCN1CCCN(c2ccc(-n3ccc(C)n3)nn2)CC1` [CBK306304], the viability at 28.5 h, 10 µM was 107%.
Take `Cc1nc(S(=O)(=O)N2CCC3(CCCCC3)C2)cn1C` [CBK306306]: the viability at 28.5 h, 10 µM was 100%.
For the compound `Cc1nn(C)c(C)c1CC(=O)NC1CCN(c2c(F)cccc2F)C1` (stereo not shown) [CBK306307], the viability at 28.5 h, 10 µM was found to be 83.2%.
As to `CCCCC(=O)NC1CCN(C(=O)c2cccc(C#N)c2)CC1` [CBK306309], the viability at 28.5 h, 10 µM came to 83.4%.
In the case of `Cc1nc(-c2cccnc2)[nH]c(=O)c1CC(=O)N(C)C1CCCCC1` [CBK306310], the viability at 28.5 h, 10 µM came out at 88.7%.
With `CC(C)Oc1ncc(C(=O)Nc2cnn(CC(N)=O)c2)cc1Cl` [CBK306311] the figure was 90.4%; with `Cn1cc(CNCc2ccc(N3CCCC3)nc2)c(-c2cccnc2)n1` [CBK306312], 105%; with `O=C(c1cc(Cl)c[nH]1)N1CCN(Cc2cc(=O)n3ccsc3n2)CC1` [CBK306313], 92.9%.
For `COc1ncccc1NC(=O)CSCC#N` [CBK306314] the value was 108%.
For `COc1ccc(C)cc1-n1ccc(C(=O)NC(C)(C)C)n1` [CBK306315] the value was 78.8%; for `Cn1cc(CNCC2CCN(c3ccccc3)C2)c(-c2ccncc2)n1` (stereo not shown) [CBK306317], 94.3%.
In the case of `CNC(=O)NC(=O)C(C)NCC1(c2cc(C)ccc2OC)CCOCC1` (stereo not shown) [CBK306318], the viability at 28.5 h, 10 µM amounted to 79.1%.
`Cc1nc(SCCn2cccn2)c2c(=O)n(C)c(=O)n(CC(C)C)c2n1` [CBK306321]: the viability at 28.5 h, 10 µM turned out to be 99.1%.
For the compound `Cn1cc(NC(=O)c2ccc(CN3CCCC3=O)cc2)cn1` [CBK306322], the viability at 28.5 h, 10 µM turned out to be 89.7%.
For the compound `Cc1[nH]c(=O)c(C#N)c(C)c1CCC(=O)NCc1cn2ccccc2n1` [CBK306325], the viability at 28.5 h, 10 µM turned out to be 93%.
On to `OCCn1ncc2c(NCc3ccc(-n4cccn4)nc3)ncnc21` [CBK306326], for which the viability at 28.5 h, 10 µM came to 87.8%.
As for `CC(C)Oc1ncc(C(=O)NCc2cccc(NC(N)=O)c2)cc1Cl` [CBK306327], the viability at 28.5 h, 10 µM was found to be 94.4%.
Take `Cc1nc(C(F)(F)F)ccc1C(=O)N1CCCC1c1ccc[nH]1` (stereo not shown) [CBK306328]: the viability at 28.5 h, 10 µM was found to be 107%.
In the case of `NC(=O)COc1ccc(CNC(=O)CN2CCc3ccccc32)cc1` [CBK306330], the viability at 28.5 h, 10 µM was 96.1%.
For `CN(CC(=O)NCc1ccc(OCC(N)=O)cc1)C1CCCCC1` [CBK306331] the value was 81.7%.
On to `NC(=O)COc1ccc(CNC(=O)CN2CCCCCC2)cc1` [CBK306332], for which the viability at 28.5 h, 10 µM was found to be 87.6%.
With `Cc1ccc(NCC2CCN(Cc3cc(=O)n4ccccc4n3)C2)nc1` (stereo not shown) [CBK306334], the viability at 28.5 h, 10 µM came out at 80.7%.
With `Cc1ccc(NCC2CCN(CC(=O)Nc3cc(C)on3)C2)nc1` (stereo not shown) [CBK306337], the viability at 28.5 h, 10 µM amounted to 95.5%.
Regarding `CC(=O)N1CC2(CCCC2)c2c(F)cccc21` [CBK306339], the viability at 28.5 h, 10 µM is 78.2%.
`Cc1ccc2nc(CN3CCC(CNc4ccccn4)C3)cc(=O)n2c1` (stereo not shown) [CBK306340]: the viability at 28.5 h, 10 µM was determined as 83.7%.
Turning to `N#Cc1ccc(NCC(=O)Nc2ncn(Cc3cccnc3)n2)cc1` [CBK306343], the viability at 28.5 h, 10 µM is 94.3%.
With `NC(=O)NC(CC(=O)N1CCCC1c1ccncc1)c1cccc(Br)c1` (stereo not shown) [CBK306345] the figure was 92.7%.

For orientation: viability means a read-out of living cells in per cent, often relative to untreated cells.
